Reference: a melting point compilation (Tetko et al.; mined from patent text by program, amines drawn as free bases though some values may be those of a salt)

Point of comparison: `CC(=O)OC1CSC(Oc2ccc(-c3cccnc3F)nc2Cl)C(OC(C)=O)C1OC(C)=O` (stereo not given), melting point 227 °C. Against it:
- Cc1cc2c(s1)Oc1ccccc1N=C2N1CC2CCC(C1)N2C — lower, 156 to 159 °C
- Ic1ccc(SSc2ccc(I)c3ccccc23)c2ccccc12 — lower, 129 to 131 °C
- O=C(Nc1ccc(N2CCN(C(=O)Nc3ccc(C(=O)O)cc3Cl)CC2)cc1)Nc1ccccc1F — higher, 250 to 253 °C
- CC(C)(C)N1C[C@H](O)C[C@H]1C(=O)NC(=O)OCc1ccccc1 — lower, 128 to 130 °C
- CCOC(C)=C(C#N)C(=O)c1ccc(F)cc1 — lower, 77 °C
- c1csc(C2=NOCCS2)c1 — lower, 86 to 89 °C
- COc1ccc(CCCC(O)COc2ccc(OCc3ncc[nH]3)cc2)cc1OC (stereo not given) — lower, 129 to 130 °C
- C[C@H](Oc1cc(-c2c3ccccc3c(Br)c3sc4ccccc4c23)ccc1Br)C(=O)O — lower, 132 to 134 °C
- C=CCNC(=O)CN1CCN(Cc2ccc3c(c2)NC(=O)C(C)O3)CC1 (stereo not given) — lower, 151 to 158 °C
- COc1cc2cc(-c3ccccc3C)sc2c(Cl)c1Cl — lower, 156 to 157 °C
- CCOC(=O)C=Cc1cc2c(cn1)[nH]c1ccccc12 — lower, 132 to 134 °C
- COC(=O)[C@@H]1CCN1S(=O)(=O)c1ccc(Cl)c(COc2cccc3c(-n4ccnc4)cc(C)nc23)c1Cl — lower, 80 °C
- Nc1ncc(-c2cc(C(F)(F)F)cc(C(F)(F)F)c2)nc1C(=O)Nc1cccnc1 — lower, 220 to 222 °C
- CCONC(CC)=C1C(=O)CC(CCSc2ccc(Cl)cc2)CC1=O (stereo not given) — lower, 42 to 43 °C
- c1ccc(COCCCCOCc2ccccc2)cc1 — lower, 18 °C
- O=C(OCCOCn1cnc2c(Cl)nc(Cl)nc21)c1ccccc1 — lower, 121 to 125 °C
- CC(C)Sc1cc2c(cc1Cl)N=C(CCl)NS2(=O)=O — higher, 248 to 250 °C
- CSc1sc(-c2ccccn2)c2c1-c1oncc1C(C)(C)C2 — lower, 153 to 155 °C
- Cc1ccc(S(=O)(=S)OCc2ccccc2)cc1 (stereo not given) — lower, 52 to 56.5 °C
- O=C(Nc1cc(S(=O)(=O)NC(CO)CO)sc1Cl)c1cnn2c(C(F)F)cc(-c3ccc(C(F)(F)F)cc3)nc12 — higher, 241 °C
- Cn1ncc(C#N)c1-c1ccc([N+](=O)[O-])o1 — lower, 150 to 152 °C
- COc1cc(OC)c2c(=O)[nH]c(-c3cc(C)c(OCCN4CCCC4)c(C)c3)nc2n1 — higher, 228 to 230 °C
- N#Cc1cc(N2CCC(c3cc(Cl)cc(Cl)c3)(C(F)(F)F)C2)ccc1F (stereo not given) — lower, 184 to 186 °C
- CN1C(=O)Cn2c(-c3ccccc3)nnc2-c2cc(Cl)ccc21 — lower, 204 to 206 °C
- CC(Cc1ccc(CC2SC(=O)NC2=O)cc1)NCC(O)c1cc(Cl)c(N)c(Cl)c1 (stereo not given) — lower, 195 to 201 °C
- CNC(=N[N+](=O)[O-])N(Cc1cnc(Cl)s1)C(=O)N1CCOCC1 — lower, 130 to 131 °C
- CC(=O)NC[C@H]1CN(c2ccc(N3CCC(O)(CN=[N+]=[N-])CC3)cc2)C(=O)O1 — lower, 134 to 136 °C
- O=c1[nH]c2cc(Cl)cc(Cl)c2c(O)c1Sc1ccc(NS(=O)(=O)c2ccc(Cl)cc2)cc1 — higher, 270 to 274 °C
- CCOC1CC(n2cc(C(F)(F)F)c(=O)[nH]c2=O)OC1CO (stereo not given) — lower, 183 to 184 °C
- Cc1nsc(SCC2=C(C(=O)OC(c3ccccc3)c3ccccc3)N3C(=O)C(N)(N)C3SC2)n1 (stereo not given) — lower, 157 to 159 °C
- C=CCOc1cc(-c2cc(=O)c3c(OCC=C)c(CC=C)c(OCC=C)cc3o2)ccc1OC — lower, 107 °C
- O=C(CCl)Nc1ccc2c(c1NC(=O)c1ccccc1F)C(=O)c1ccccc1C2=O — higher, 245 to 246 °C
- CCCCOc1c(NC(C)C(C)(C)C)c(=O)c1=O (stereo not given) — lower, 90 to 99 °C
- O=C(NC1CC1)c1ccc(N2CCN(Cc3cnc4c(c3)[nH]c(=O)n3cccc43)CC2)cc1 — higher, 270 to 272 °C
- Cc1cccc(C)c1NC(=O)NC1CC(C)(C)c2ccccc2C1(C)C (stereo not given) — lower, 216 to 218 °C
- O=C(Nc1n[nH]c(=S)s1)NC(Cc1ccccc1)C(=O)NCc1cccc2ccccc12 (stereo not given) — higher, 234 to 235 °C
- CCOC(=O)c1cc2c3n(ccc-2n1)CC(C=O)=N3 — lower, 82 to 84 °C
- N#Cc1cc(F)ccc1N1CCNCC1 — lower, 83 to 83.5 °C
- COc1cc(C=CC=C2OC(=O)NC2=O)ccc1OCc1coc(-c2ccccc2)n1 — not separable, 227 to 228 °C
- CS(=O)(=O)c1ccc(-c2cnn(-c3ccc(F)c(F)c3)c(=O)c2-c2ccc(F)cc2)cc1 — lower, 109 to 110 °C
- N#CCN1c2ccc([N+](=O)[O-])cc2CS1(=O)=O — lower, 200 to 202 °C
- CC(C)Cc1cccc(CCCn2c(=O)[nH]c3cc(Cl)cc(Cl)c3c2=O)c1 — lower, 167 to 172 °C
- COc1cc(O)cc(-c2cc3ccc(O)cc3o2)c1CC=C(C)C — lower, 93 to 94 °C
- N#Cc1cn(C2OC(CO)C(O)C2O)c2ncn(O)c(=O)c12 (stereo not given) — higher, 229 to 231 °C
- Cc1cc(Cl)cc(C)c1NC(=O)N(CCC(C)(C)C)Cc1ccc(CC(C)(C)C)cc1 — lower, 148 to 150 °C
- CCN(CC1CCCC1)c1nc2c(cc1CN(Cc1cc(C(F)(F)F)cc(C(F)(F)F)c1)c1nnn(C)n1)c(C)nn2C — lower, 84 to 86 °C
- Clc1nc(-n2ccnc2)c2ccccc2c1-c1ccccc1 — lower, 165 to 168 °C
- CCC(=O)N1CCc2cc(O)c(OC)cc2C1 — lower, 116 to 118 °C
- Cc1cc(CN(C(=O)Nc2ccc(C(=O)O)cc2)c2ccc3c(c2)C(C)(C)CCC3(C)C)no1 — lower, 188 to 193 °C
- c1nc(Nc2ccc3[nH]ccc3c2)c2sc(-c3ccc(CNCCN4CCOCC4)cc3)cc2n1 — lower, 100 to 111 °C
- CCN(CC)CCn1c(O)nc2cc(Cl)c(Cl)nc21 — lower, 137 to 139 °C
- CCCCCCCCCCCCCCSc1ccc(Cl)c(N)c1 — lower, 60.5 to 61.5 °C
- COc1cccc2c1cc(C=O)n2Cc1ccccc1 — lower, 130 to 131 °C
- CN(C)CC/C=C1/c2ccccc2CCc2ccc(Br)cc21 — lower, 73 to 75 °C
- Nc1ncc(CCCCCc2cccc3ccccc23)c(N)n1 — lower, 128 to 133 °C
- CC(C)(C)NC(=O)N1CC(Oc2ccc(C(F)(F)F)cc2)C1 — lower, 145 to 146 °C
- N#CC(c1ccccc1)C1CCN(c2ccc([N+](=O)[O-])cc2)CC1 (stereo not given) — lower, 118 °C
- Fc1ccc(-c2ncn(C3CCNCC3)c2-c2ccnc(Oc3ccccc3)n2)cc1 — lower, 182 to 183 °C
- CC(=O)Oc1ccc(-c2ccc(C(C)O)cc2)cc1 (stereo not given) — lower, 142 to 144 °C
- CC(C)c1cccc(NC(=N)Nc2cccc(C(C)C)c2)c1 — lower, 118 to 119 °C
- Cc1ccc(C(=O)Nc2ccc(N3CCCC3)c(C(F)(F)F)c2)cc1Nc1nccc(-c2cccnc2)n1 — lower, 129 to 130 °C
- CCNc1nc(C#N)c(C#N)nc1-c1cccc(Br)c1 — lower, 127 to 128 °C
- O=C(NC(=O)c1c(Cl)cccc1Cl)Nc1cc(Cl)c(OC(F)(F)C(F)Cl)cc1Cl (stereo not given) — lower, 198 to 200 °C
- CC(=O)Nc1ccc2c(c1)C(=O)N(CCO[N+](=O)[O-])CO2 — lower, 141 to 142 °C
- Cc1nn(-c2ccc(F)cc2)cc1C(=O)N(CC(=O)O)c1ccc(OCC(C)(C)C)c(C#N)c1 — lower, 157 °C
- C=CCc1cc(C(=O)c2ccnn2C)c(Cl)c(Cl)c1OCC(=O)O — lower, 111 to 113 °C
- COc1cc(/C=C/C(=O)CC(=O)c2ccc(I)cc2)ccc1O — lower, 139 to 141 °C
- COC(=O)Nc1cc(Oc2ccc3c(C(=O)Nc4cccc(C(F)(F)F)c4)cccc3c2)ccn1 — higher, 230 to 232 °C
- N#Cc1ccnc(OCc2nc3cc(Cl)ccc3s2)c1 — not separable, 224 to 227 °C
